Experimental data from ChEMBL document CHEMBL3045550, “Design, synthesis and biological activities of new strobilurin derivatives containing substituted pyrazoles” (2010).

Experiments:
Assay type in all cases: functional
[1] = system: Pseudoperonospora cubensis; assay: Antifungal activity against Pseudoperonospora cubensis infected cucumber leaves assessed as disease control at 25 mg/l after 5 days relative to control
[2] = system: Blumeria graminis f. sp. tritici; assay: Antifungal activity against Blumeria graminis f. sp. tritici infected seven-day-old wheat seedlings assessed as disease control at 12.5 mg/l after 7 days relative to control
Botrytis cinerea = assay: Antifungal activity against Botryotinia fuckeliana infected cucumber leaves assessed as disease control at 400 mg/l after 4 days relative to control
[3] = system: Pseudoperonospora cubensis; assay: Antifungal activity against Pseudoperonospora cubensis infected cucumber leaves assessed as disease control at 3.12 mg/l after 5 days relative to control
[4] = system: Pseudoperonospora cubensis; assay: Antifungal activity against Pseudoperonospora cubensis infected cucumber leaves assessed as disease control at 400 mg/l after 5 days relative to control
Tetranychus cinnabarinus [5] = assay: Acaricidal activity against Tetranychus cinnabarinus (carmine spider mite) in kidney bean plants assessed as mortality at 600 mg/l after 48 hr relative to control
Pyricularia oryzae = assay: Antifungal activity against Magnaporthe oryzae infected 12 day old rice plant assessed as disease control at 400 mg/l after 6 days relative to control
[6] = system: Blumeria graminis f. sp. tritici; assay: Antifungal activity against Blumeria graminis f. sp. tritici infected seven-day-old wheat seedlings assessed as disease control at 400 mg/l after 7 days relative to control
[7] = system: Pseudoperonospora cubensis; assay: Antifungal activity against Pseudoperonospora cubensis infected cucumber leaves assessed as disease control at 6.25 mg/l after 5 days relative to control
[8] = system: Blumeria graminis f. sp. tritici; assay: Antifungal activity against Blumeria graminis f. sp. tritici infected seven-day-old wheat seedlings assessed as disease control at 1.56 mg/l after 7 days relative to control
Tetranychus cinnabarinus [9] = assay: Acaricidal activity against Tetranychus cinnabarinus (carmine spider mite) in kidney bean plants assessed as mortality at 38 mg/l after 48 hr relative to control
Tetranychus cinnabarinus [10] = assay: Acaricidal activity against Tetranychus cinnabarinus (carmine spider mite) in kidney bean plants assessed as mortality at 150 mg/l after 48 hr relative to control

Row | Compound | Activity [1] | Activity [2] | Activity (Botrytis cinerea) | Activity [3] | Activity [4] | Activity (Tetranychus cinnabarinus [5]) | Activity (Pyricularia oryzae) | Activity [6] | Activity [7] | Activity [8] | Activity (Tetranychus cinnabarinus [9]) | Activity (Tetranychus cinnabarinus [10])
1 | CO/C=C(/C(=O)OC)c1ccccc1COc1cc(-c2ccccc2OC)nn1C | 50% | 100% | 50% | 0% | 100% | 0% | 100% | 100% | 0% | 35% |  | 
2 | CO/C=C(/C(=O)OC)c1ccccc1COc1cc(-c2ccccc2Cl)nn1C | 100% | 100% | 0% | 0% | 100% | 100% | 0% | 100% | 0% | 40% | 0% | 0%
3 | CO/C=C(/C(=O)OC)c1ccccc1COc1cc(-c2ccc(OCC(F)(F)F)cc2)nn1C | 90% |  | 0% | 0% | 100% | 0% | 0% | 60% | 0% |  |  | 
4 | CO/C=C(/C(=O)OC)c1ccccc1COc1cc(-c2ccc([N+](=O)[O-])cc2)nn1C | 100% | 100% | 0% | 50% | 100% | 0% | 99% | 100% | 70% | 95% |  | 
5 | CO/C=C(/C(=O)OC)c1ccccc1COc1cc(-c2ccc(-c3ccc(Cl)cc3)cc2)nn1C | 100% | 95% | 0% | 0% | 100% | 0% | 0% | 100% | 0% | 0% |  | 
6 | CO/C=C(/C(=O)OC)c1ccccc1COc1cc(-c2ccc(Oc3ccccc3)cc2)nn1C | 100% |  | 0% | 0% | 100% | 0% | 0% | 0% | 0% |  |  | 
7 | CO/C=C(/C(=O)OC)c1ccccc1COc1c(C)c(-c2ccccc2)nn1C | 100% | 100% | 0% | 40% | 100% | 100% | 0% | 100% | 60% | 55% | 0% | 0%
8 | CO/C=C(/C(=O)OC)c1ccccc1Oc1cc(Oc2ccccc2C#N)ncn1 [AZOXYSTROBIN] | 100% | 100% | 100% | 100% | 100% |  | 100% | 100% | 95% | 60% |  | 
9 | CO/N=C(/C(=O)OC)c1ccccc1COc1ccccc1C [KRESOXIM-METHYL] | 35% | 100% | 100% | 0% |  |  | 100% | 100% | 0% | 100% |  | 
10 | CO/C=C(/C(=O)OC)c1ccccc1COc1c(C)c(-c2ccc(OCC(F)(F)F)cc2)nn1C [METHYL 2-(2-((1,4-DIMETHYL-3-(4-(2,2,2-TRIFLUOROETHOXY)PHENYL)-1H-PYRAZOL-5-YLOXY)METHYL)PHENYL)-3-METHOXYACRYLATE] | 40% | 100% | 100% | 0% | 100% | 60% | 100% | 100% | 0% | 65% |  | 
11 | CO/C=C(/C(=O)OC)c1ccccc1COc1c(C)c(-c2ccc(C)cc2)nn1C [METHYL 2-(2-((1,4-DIMETHYL-3-P-TOLYL-1H-PYRAZOL-5-YLOXY)METHYL)PHENYL)-3-METHOXYACRYLATE] | 100% | 100% | 0% | 40% | 100% | 100% | 0% | 100% | 75% | 45% | 0% | 0%
12 | CO/C=C(/C(=O)OC)c1ccccc1COc1cc(-c2ccc(Cl)cc2Cl)nn1C [METHYL 2-(2-((3-(2,4-DICHLOROPHENYL)-1-METHYL-1H-PYRAZOL-5-YLOXY)METHYL)PHENYL)-3-METHOXYACRYLATE] | 100% | 100% | 0% | 20% | 100% | 0% | 0% | 100% | 45% | 0% |  | 
13 | CO/C=C(/C(=O)OC)c1ccccc1COc1cc(-c2ccc(C)cc2C)nn1C [METHYL 2-(2-((3-(2,4-DIMETHYLPHENYL)-1-METHYL-1H-PYRAZOL-5-YLOXY)METHYL)PHENYL)-3-METHOXYACRYLATE] | 100% | 100% | 50% | 20% | 100% | 100% | 100% | 100% | 70% | 80% | 0% | 0%
14 | CO/C=C(/C(=O)OC)c1ccccc1COc1c(C)c(-c2ccc(Cl)cc2)nn1C [METHYL 2-(2-((3-(4-CHLOROPHENYL)-1,4-DIMETHYL-1H-PYRAZOL-5-YLOXY)METHYL)PHENYL)-3-METHOXYACRYLATE] | 0% | 100% | 0% | 0% | 95% | 60% | 0% | 100% | 0% | 100% |  | 
15 | CO/C=C(/C(=O)OC)c1ccccc1COc1cc(-c2ccc(F)cc2)nn1C [METHYL 2-(2-((3-(4-FLUOROPHENYL)-1-METHYL-1H-PYRAZOL-5-YLOXY)METHYL)PHENYL)-3-METHOXYACRYLATE] | 100% |  | 100% | 75% | 100% | 0% | 50% | 30% | 100% |  |  | 
16 | CO/C=C(/C(=O)OC)c1ccccc1COc1cc(-c2ccc(C(C)(C)C)cc2)nn1C [METHYL 2-(2-((3-(4-TERT-BUTYLPHENYL)-1-METHYL-1H-PYRAZOL-5-YLOXY)METHYL)PHENYL)-3-METHOXYACRYLATE] | 15% |  | 50% |  | 100% | 0% | 100% | 70% |  |  |  | 
17 | CO/C=C(/C(=O)OC)c1ccccc1COc1cc(-c2ccc(SC)cc2)nn1C [METHYL 3-METHOXY-2-(2-((1-METHYL-3-(4-(METHYLTHIO)PHENYL)-1H-PYRAZOL-5-YLOXY)METHYL)PHENYL)ACRYLATE] | 100% |  | 0% | 0% | 100% | 0% | 90% | 0% | 35% |  |  | 
18 | CO/C=C(/C(=O)OC)c1ccccc1COc1cc(-c2ccc(C)cc2)nn1C [METHYL 3-METHOXY-2-(2-((1-METHYL-3-P-TOLYL-1H-PYRAZOL-5-YLOXY)METHYL)PHENYL)ACRYLATE] | 0% | 35% | 0% | 0% | 100% | 0% | 0% | 100% | 0% | 0% |  | 
19 | CO/C=C(/C(=O)OC)c1ccccc1COc1cc(-c2ccccc2)nn1C [METHYL 3-METHOXY-2-(2-((1-METHYL-3-PHENYL-1H-PYRAZOL-5-YLOXY)METHYL)PHENYL)ACRYLATE] | 0% | 0% | 0% | 0% | 100% | 0% | 0% | 100% | 0% | 0% |  | 
20 | CO/C=C(/C(=O)OC)c1ccccc1COc1cc(-c2ccc(OC)cc2)nn1C [METHYL 3-METHOXY-2-(2-((3-(4-METHOXYPHENYL)-1-METHYL-1H-PYRAZOL-5-YLOXY)METHYL)PHENYL)ACRYLATE] | 90% | 65% | 50% | 0% | 95% | 0% | 100% | 100% | 15% | 0% |  | 
